This note sets out measurements from article PMC9372747, “Genome-wide analysis of UGT gene family identified key gene for the biosynthesis of bioactive flavonol glycosides in Epimedium pubescens Maxim” (Synthetic and Systems Biotechnology, 2022).

The test deals with T1, EpGT60.
T1 construct: not anchored to any chromosome
In words: UPLC of rhamnosylated product, GraphPad Prism fit. The class given is biochemical, Epimedium pubescens. As to conditions: 4 mM UDP-rhamnose, 1 mM DTT, 50 mM Tris-HCl pH 7.0, 30 °C, 1 h; substrate 100-500 μM.

For orientation: Km means the substrate concentration at which the rate is half of its maximum.

Structures are written as SMILES.

As for `CC(C)=CCc1c(O)cc(O)c2c(=O)c(O)c(-c3ccc(O)cc3)oc12` [8-prenylkaempferol], the Km was determined as 289 µM.
